Experimental data: PubChem BioAssay AID1996
≈ marks a conversion by molar mass, not a printed value.

Conditions: buffer; pH 7.4; 200.0 µM

SMILES | solubility kinetic [mg/mL]
Cc1ccccc1-c1nnc(SCC(=O)Nc2cccnc2Cl)o1 | > 0.0541
Oc1ccc(C=NCCc2ccccc2)cc1 | > 0.0338
O=C(COC(=O)c1ccc[nH]c1=O)NC1CCCCCCC1 | 0.0415 (≈ 135 µM)
Cc1cc(C)[n+](-c2ccc(Oc3ccccc3)c(S(=O)(=O)[O-])c2)[nH]1 | > 0.0517
N#CC1(NC(=O)COC(=O)C2=COCCO2)CCCCC1 | > 0.0441
COC(=O)c1ccc(CNC(=O)COC(=O)CCC(=O)c2ccc(F)cc2)cc1 | 0.0055 (≈ 13.7 µM)
CC1(C(=O)O)CCC(C(=O)N2CCCCC2)C1(C)C (centres undefined) | > 0.0401
COc1ccc2[nH]cc(C(O)CN3CCN(c4ccccc4F)CC3)c2c1 (centres undefined) | > 0.0554
O=c1[nH]c(CSc2ccccc2)nc2c1oc1ccccc12 | 0.0022 (≈ 7.13 µM)
Cc1ccc(S(=O)(=O)NC(=O)Nc2ccc(F)c(F)c2)cc1 | 0.0441 (≈ 135 µM)
CCOc1ccc(-c2csc(NC(=O)c3ccco3)n2)cc1 | 0.0026 (≈ 8.27 µM)
CC(=O)N1c2ccc(C)cc2C(c2ccccc2)CC1C (centres undefined) | 0.0406 (≈ 145 µM)
CC1CCN(C(=O)COC(=O)c2cc3ccccc3oc2=O)CC1 | > 0.0494
CCOC(=O)c1c(N)sc(C(=O)N(CC)CC)c1C | > 0.0427
O=[N+]([O-])c1ccc(N2CCNCC2)cc1N1CCCCC1 | > 0.0436
CC1CCCC(C)N1C(=O)COC(=O)c1ccccc1O (centres undefined) | 0.0423 (≈ 145 µM)
Cc1ccc(NC(=O)C(=O)NCCc2c[nH]c3ccccc23)cc1C | < 0.0002
CC(=O)Nc1ccc(-c2csc(Nc3cc(C)ccn3)n2)cc1 | 0.0004 (≈ 1.23 µM)
CCN1/C(=C/C(=S)Nc2ccccc2)Sc2ccccc21 | 0.0067 (≈ 21.4 µM)
Cc1nc(-c2cccc(NC(=O)c3ccc(Br)o3)c2)cs1 | 0.0172 (≈ 47.4 µM)

SMILES | solubility kinetic [mg/mL]
Fc1cccc(Cl)c1CNCc1cccnc1 | > 0.0376
O=C(Nc1ccccc1)c1cccc2c(Br)cccc12 | < 0.0007
COC(=O)c1cccc(NC(=O)CC2C(=O)NCCN2C(=O)Nc2cc(C)cc(C)c2)c1 (centres undefined) | 0.0131 (≈ 29.9 µM)
CCSc1ncc(Cl)c(C(=O)Nc2ccccc2C)n1 | 0.0005 (≈ 1.62 µM)
O=C(NCCCNC(=O)c1ccco1)c1ccc(Cl)cc1 | > 0.046
O=C(C1CC1)N1CCN(c2ccc(F)cc2)CC1 | 0.0347 (≈ 140 µM)
COc1ccc2c(c1)c(C(C)=O)c(C)n2CCc1ccccc1 | < 0.0007
COc1cccc(CNC(=O)N2CCN(c3ccccc3C)CC2)c1 | 0.0153 (≈ 45.1 µM)
Cn1c(=O)c2c(nc(SCCN3CCOCC3)n2C)n(C)c1=O | > 0.0509
COC(=O)C(C)Nc1cccc(Br)c1 (centres undefined) | 0.0218 (≈ 84.5 µM)
O=C(Nc1ccc(O)cc1)N1CCOCC1 | > 0.0333
CC(CN1CCCCC1)OC(=O)c1ccco1.Cl (centres undefined) | > 0.0411
COc1ccc(Nc2oc(-c3ccc(OC)cc3)nc2C#N)cc1 | 0.0007 (≈ 2.18 µM)
CC(=O)Nc1ccc(S(=O)(=O)NC(C(=O)O)C(C)O)cc1 (centres undefined) | > 0.0474
CC(=O)Nc1ccc(N2C(=O)CC(Sc3nccc(C)n3)C2=O)cc1 (centres undefined) | > 0.0535
CC(=O)NCc1ccc(C(=O)O)cc1 | > 0.029
[O-][n+]1c(/C=C/c2ccccc2)ccc2ccccc21 | > 0.0371
O=C(NCC(c1ccco1)N1CCCCC1)c1ccc([N+](=O)[O-])s1 (centres undefined) | > 0.0524
COC(=O)C(Cc1c[nH]c2ccccc12)N1CCS(=O)(=O)CC1 (centres undefined) | > 0.0505
CS(=O)(=O)N(CC(=O)Nc1cccc(Br)c1)Cc1ccccc1 | 0.0513 (≈ 129 µM)

SMILES | solubility kinetic [mg/mL]
COc1ccccc1C(=O)Nc1ccc2c(C)cc(=O)oc2c1 | 0.0013 (≈ 4.2 µM)
CCN(C(=O)CCCCC(=O)N(CC)c1ccccc1)c1ccccc1 | > 0.0529
O=C(Nc1ccc2c(c1)OCO2)C(=O)c1c[nH]c2ccccc12 | 0.0007 (≈ 2.27 µM)
Cc1ccc(CC2CC(=O)N(c3cc(Cl)ccn3)C2=O)cc1 (centres undefined) | 0.0137 (≈ 43.5 µM)
Cc1nc(SCC(=O)O)c(C#N)c(-c2ccco2)c1C(=O)N(C)C | > 0.0518
Cc1cccc(C)c1NC(=O)N1CCC(C(=O)c2ccc(F)cc2)CC1 | 0.0154 (≈ 43.5 µM)
O=C(OCC(=O)N1CCOCC1)c1ccc(Cl)c(S(=O)(=O)N2CCc3ccccc32)c1 | 0.0324 (≈ 69.7 µM)
Cc1cc(C)cc(NS(=O)(=O)c2c(C)[nH]c(=O)[nH]c2=O)c1 | > 0.0464
N#CCc1ccc(OC(=O)c2cnccc2C(F)(F)F)cc1 | 0.0136 (≈ 44.4 µM)
O=C1CN(C(=O)COc2ccc(Cl)cc2Cl)c2ccccc2N1 | 0.0031 (≈ 8.83 µM)
Cc1cc(C(=O)NCc2ccco2)c2cc(F)ccc2n1 | 0.0423 (≈ 149 µM)
O=c1cc(C(F)(F)F)[nH]c2ccc(OC(F)(F)F)cc12 | > 0.0446
O=[N+]([O-])c1ccc(Sc2ccc(F)cc2)nc1 | 0.0007 (≈ 2.8 µM)
CCOc1ccc(/C=N/N2C(C)CCCC2C)cc1OC (centres undefined) | > 0.0436
COc1ccc(C(=O)N[C@H](C(=O)Nc2sccc2C(N)=O)C(C)C)cc1 | > 0.0563
COc1cc(NC(=O)c2ccc(S(=O)(=O)N(C)c3ccccc3)cc2)cc(OC)c1 | 0.005 (≈ 11.7 µM)
CCc1nnc(NC(=O)c2cc(C)nc3ccccc23)s1 | > 0.0448
Clc1ccc(Cl)c(OCCN2CCCC2)c1 | 0.0254 (≈ 97.6 µM)
S=C(NCc1cccs1)NCC1CCCO1 (centres undefined) | > 0.0385
